The text below walks through data of ChEMBL document CHEMBL5357017, “Small Molecule Fluorescent Ligands for the Atypical Chemokine Receptor 3 (ACKR3)” (ACS Med Chem Lett, 2024).

Active and inactive are the calls of the source. The rule behind the calls is not given here.

The target in experiment [1] is T1, Atypical chemokine receptor 3 (Homo sapiens, UniProt P25106). In words: Binding affinity to NanoLuc tagged human wild type ACKR3 expressed in HEK293G cells using furimazine as NanoLuc substrate preincubated for 1 hr in dark in presence of (R)-N-(3-(2-fluorophenyl)-2methylallyl)-3,4,5-trimethoxyN-(2-(1-methylpyrrolidin-2yl)ethyl)benzamide followed by substrate addition and measured after 5 mins by NanoBRET competition binding assay. Type of experiment: cell-based.

In experiment [2] the target is T1, Atypical chemokine receptor 3. Kind of experiment: Binding affinity to ACKR3 (unknown origin) by [125I] CXCL12 displacement assay.
Experiment [3] shares this target. Kind of experiment: Binding affinity to NanoLuc tagged human wild type ACKR3 expressed in HEK293G cells using furimazine as NanoLuc substrate preincubated for 1 hr in dark followed by substrate addition and measured after 5 mins by NanoBRET assay. Conditions: time 65.0 min. Type of experiment: cell-based.
The target is the same in experiment [4]. In words: Binding affinity to NanoLuc tagged human wild type ACKR3 expressed in HEK293G cells using furimazine as NanoLuc substrate preincubated for 1 hr in dark in presence of (R)-N-(3-(2-fluorophenyl)-2methylallyl)-3,4,5-trimethoxyN-(2-(1-methylpyrrolidin-2yl)ethyl)benzamide followed by substrate addition and measured after 5 mins by NanoBRET assay. In kind it is cell-based. A general note: In BRET a luciferase serves as donor, and the signal depends on an acceptor being close.

Experiment [5] has the same target. In words: Binding affinity to N-terminal SNAP-tagged ACKR3 (unknown origin) transfected in HEK293T cells assessed as internalization by measuring receptor colocalized intracellular fluorescence at 50 to 100 nM incubated for 30 mins by confocal microscopic analysis. Type of experiment: cell-based. The note with it: dose 50-100 nM.
For experiment [6] the target is unchanged. Kind of experiment: Binding affinity to N-terminal SNAP-tagged ACKR3 (unknown origin) transfected in HEK293T cells assessed as internalization by measuring receptor colocalized intracellular fluorescence at 50 to 100 nM preincubated with (R)-N-(3-(2-fluorophenyl)-2-methylallyl)-3,4,5-trimethoxy-N-(2-(1-methylpyrrolidin-2-yl)ethyl)benzamide for 30 mins followed by fluorescent compound addition and further incubated for 30 mins by confocal microscopic analysis. The note with it: dose 50-100 nM. Type of experiment: cell-based.

T1 sequence (P25106 whole entry): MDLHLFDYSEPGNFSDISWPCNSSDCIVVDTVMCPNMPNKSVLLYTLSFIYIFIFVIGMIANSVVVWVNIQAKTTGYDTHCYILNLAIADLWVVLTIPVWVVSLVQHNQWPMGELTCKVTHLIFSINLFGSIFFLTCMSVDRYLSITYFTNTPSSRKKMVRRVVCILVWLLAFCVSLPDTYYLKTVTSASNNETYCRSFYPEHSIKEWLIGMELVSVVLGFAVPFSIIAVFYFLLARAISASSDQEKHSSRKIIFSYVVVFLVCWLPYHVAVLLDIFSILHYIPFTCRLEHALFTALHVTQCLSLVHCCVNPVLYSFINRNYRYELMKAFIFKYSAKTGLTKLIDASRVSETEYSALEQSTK

With `C/C(=C\c1ccccc1)CN(CCC1CCCN1C)C(=O)c1ccc2c(c1)OCCO2` (centres undefined), the Ki in experiment [1] is 10 µM.

In the case of `COc1cc(C(=O)N(CC[C@@H]2CCCN2C)C/C(C)=C/c2ccccc2F)cc(OC)c1OC`, in experiment [2], the EC50 was 0.02 µM.

As for `COc1cc(C(=O)N(CC[C@H]2CCCN2C)C/C(C)=C/c2ccccc2F)cc(OCCOCCNC(=O)CCCCCNC(=O)CCC2=[N+]3C(=Cc4c(C)cc(C)n4[B-]3(F)F)C=C2)c1OC`, in experiment [3], the result was Active. Moreover, in experiment [4], the Kd is 0.0813 µM.

Turning to `COc1ccc(C(=O)N(CCC2CCCN2C)C/C(C)=C/c2ccccc2F)cc1OC` (centres undefined), the Ki in experiment [1] is 0.251 µM.

In the case of `COc1ccc(C(=O)N(CCC2CCCN2C)C/C(C)=C/c2cccc(F)c2)cc1OC` (centres undefined), the Ki in experiment [1] was 0.631 µM.

On to `COc1cc(C(=O)N(CC[C@H]2CCCN2C)C/C(C)=C/c2ccccc2F)cc(OCCOCCOCCNC(=O)CCCCCNC(=O)CCC2=[N+]3C(C=C2)Cc2c(C)cc(C)n2[B-]3(F)F)c1OC` (some centres undefined), for which the outcome in experiment [3] was Active. Besides, the Kd in experiment [4] was 0.151 µM.

As to `Cc1ccc(C(=O)c2cn(Cc3cccc(Br)n3)c3ccccc3c2=O)cc1C`, the Ki in experiment [1] was 0.0398 µM.

As to `COc1cc(C(=O)N(CC[C@H]2CCCN2C)C/C(C)=C/c2ccccc2F)cc(OCCNC(=O)CCCCCNC(=O)CCC2=[N+]3C(=Cc4c(C)cc(C)n4[B-]3(F)F)C=C2)c1OC`, the outcome in experiment [3] and in experiment [5] was Active. Further, the Kd in experiment [4] is 0.0129 µM. The result in experiment [6] was inactive.

Molecule `COc1cc(C(=O)N(CC[C@H]2CCCN2C)C/C(C)=C/c2ccccc2F)cc(OC)c1OC` gave an EC50 in experiment [2] of 0.00501 µM.

The Ki is a measure of affinity in units of concentration, obtained from inhibition or displacement. A word on the EC50: it is the midpoint of the concentration-response curve. A lower EC50 goes with an effect from little substance. A word on the Kd: it is the constant that tells how readily two partners part at equilibrium.
